Measurements: paper PMC7134601 (Febs Letters, 2004)
“Also recorded” adds a separate entry of the source.

Key:
SARS‐CoV [1] = type: cell-based
SARS‐CoV 3CL protease = SARS‐CoV 3CL protease (Severe acute respiratory syndrome coronavirus, UniProt P0C6X7); test: biochemical; type: biochemical
SARS‐CoV [2] = type: cell-based; remark: listed apart in the source

Row | SMILES | Ki (SARS‐CoV 3CL protease) | inhibition pattern with respect to the substrate (SARS‐CoV 3CL protease) | inhibition of 3CL protease activity (SARS‐CoV 3CL protease) | other results
1 | Oc1c(Cl)cc(Cl)c(Cl)c1Cc1c(O)c(Cl)cc(Cl)c1Cl [Hexachlorophene] | 13.7 ± 0.4 µM | competitive |  | inhibition of cytopathic effect (SARS‐CoV [1]): strong inhibition; cytotoxicity (Vero E6 cells): No cytotoxicity; cells still alive (Vero E6 cells; African green monkey): approximately 50%
2 | [Mn+2] [Mn^2+] |  |  | did not inhibit | 
3 | CC(=O)[O][Hg][c]1ccccc1 [Phenylmercuric acetate] | 0.7 ± 0.3 µM | competitive |  | effect on detection of the viral spike protein (SARS‐CoV [2]): suppressed detection of the viral spike protein
4 | [Mg+2] [Mg^2+] |  |  | did not inhibit | 
5 | O=C(Nc1ccc([N+](=O)[O-])cc1Cl)c1cc(Cl)ccc1O [niclosamide, Niclosamide] |  |  | not indicative of any inhibitory effect | 
6 | [Ni+2] [Ni^2+] |  |  | did not inhibit | 
7 | C[CH2][Hg][S]c1ccccc1C(=O)[O-].[Na+] [Thimerosal] | 2.4 ± 0.2 µM | competitive |  | decrease of the detectable quantity of the spike protein (SARS‐CoV [2]): over 90%
8 | [O-]n1ccccc1=S.[O-]n1ccccc1=S.[Zn+2] [1‐Hydroxypyridine‐2‐thione zinc] |  | competitive |  | 
9 | [Hg+2] [Hg^2+] |  |  | effective | 
10 | [Cu+2] [Cu^2+] | 4.9 ± 1.3 µM |  | effective | 
11 | [Zn+2] [Zn^2+] | 1.1 ± 0.4 µM | non‐competitively; also recorded: non‐competitive | effective | fold larger K i versus 1‐hydroxypyridine‐2‐thione zinc (SARS‐CoV 3CL protease): 6 fold
12 | [Co+2] [Co^2+] |  |  | did not inhibit | 
